# Assay: Acute toxicity on mice
# Settings: mouse, in vivo, po; ICR-slc male mice, 4 weeks old
# Protocol: The compounds of Examples 4, 20 and 42 were tested for acute toxicity on mice^*.
row,Structure (SMILES),LD50 [mg/kg]
1,"CON=C(C(=O)NC1C(=O)N2C(C(=O)OCC(C)=Cc3ccccc3)=CCS[C@H]12)c1csc(N)n1 (stereo partly drawn) [Example 4, 2-Methyl-3-phenyl-2-propenyl 7-[2-(2-amino-4-thiazolyl)-2-methoxyiminoacetamido]-3-cephem-4-carboxylate]",> 5000
2,"CC=C(C)COC(=O)C1=CCS[C@@H]2C(NC(=O)C(=NOC)c3csc(N)n3)C(=O)N12 (stereo partly drawn) [Example 42, 2-Methyl-2-butenyl 7-[2-(2-amino-4-thiazolyl)-2-methoxyiminoacetamido]-3-cephem-4-carboxylate]",> 5000
3,"CON=C(C(=O)NC1C(=O)N2C(C(=O)OCC=C(C)C)=CCS[C@H]12)c1csc(N)n1 (stereo partly drawn) [Example 20, 3-Methyl-2-butenyl 7-[2-(2-amino-4-thiazolyl)-2-methoxyiminoacetamido]-3-cephem-4-carboxylate]",> 5000

# — patent EP0108627A2, “Cephalosporin derivatives and process for producing the same” (SUMITOMO CHEMICAL COMPANY, LIMITED, priority 1982, dated 1984)
